Laboratory results: patent publication US8841290B2, “Substituted tetrahydronaphthalenes, method for the production thereof, and use thereof as drugs” (Sanofi, priority 2009, dated 2014)
Converted amounts (≈) assume the structure as drawn.

Key:
human MCH receptor = biological target: T1, human MCH receptor (Homo sapiens, UniProt Q99705); experiment: calcium mobilization assay (FLIPR), functional IC50 of MCH1R antagonists; assay type: cell-based; conditions: recombinant HEK293 cell line expressing the human MCH receptor; calcium flux after addition of agonist (MCH); read-out: IC50
T1 construct: expressed in transfected cells
T1 sequence (Q99705 whole entry): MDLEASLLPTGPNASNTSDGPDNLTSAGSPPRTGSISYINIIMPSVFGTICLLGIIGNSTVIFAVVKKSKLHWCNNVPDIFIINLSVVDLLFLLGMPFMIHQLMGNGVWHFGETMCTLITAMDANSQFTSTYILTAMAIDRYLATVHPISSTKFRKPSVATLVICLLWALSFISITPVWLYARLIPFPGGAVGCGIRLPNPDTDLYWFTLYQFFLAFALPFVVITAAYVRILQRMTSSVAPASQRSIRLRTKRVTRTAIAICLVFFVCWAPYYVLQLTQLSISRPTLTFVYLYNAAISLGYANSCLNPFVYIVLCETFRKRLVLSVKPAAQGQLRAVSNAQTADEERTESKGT
Excerpt: A difference from the reference was, however, the use of the plasmid pEAK8 from EDGE Biosystems (USA) for the construction of the expression vector. The host used for the transfection was a transformed HEK cell line named “PEAK Stable Cells” (likewise from EDGE Biosystems). Functional measurements of the cellular calcium flux after addition of agonist (MCH) in the presence of ligand of the invention took place with the aid of the FLIPR apparatus from Molecular Devices (USA), using protocols of the apparatus manufacturer.

[1] = nephelometric (kinetic) solubility determination, phosphate buffer pH 7.4; assay type: physicochemical; conditions: aqueous buffer, kinetic from dmso stock, nephelometric, Table 7
Experimental: A DMSO solution of the test compound (2.5 mM; 0.5 μl) is pipetted into 200 μl of an aqueous test solution (e.g. phosphate-buffered saline, 10×, 1M, Sigma, adjusted to 10 mM, pH 7.4) in a 96-well microtiter plate, and the turbidity is measured at the resulting theoretical concentration for the test compound of 6.25 μM using a nephelometer (e.g. Nephelostar Galaxy, BMG Labtech). The concentration of the test compound in the aqueous test solution is then raised to a theoretical 12.5 μM by adding further DMSO solution (2.5 mM; 0.5 μl), and the turbidity measurement is repeated. Further additions of DMSO solutions (1 μl, 2.5 mM; 0.5 μl, 10 mM; then 9×1 μl, 10 mM resulting in theoretical concentrations of 25 μM, 50 μM, 100 μM, 150 μM, 200 μM, 250 μM, 300 μM, 350 μM, 400 μM, 450 μM and 500 μM) with turbidity measurement in between complete the measurement process.
Evaluation: The turbidity values from the nephelometer are plotted against the theoretical concentration of the test compound in the aqueous test solution. As soon as a significant turbidity is detected (e.g. 5 times above the control value of the aqueous test solution) at a theoretical concentration, the level of concentration below this is stated to be the solubility limit of the test compound in the test solution. Thus, the maximum possible measurement range emerges as values<6.25 μM, 6.25-500 μM and >500 μM.

Row | IC50 (human MCH receptor) | solubility kinetic [1] | SMILES
1 | 0.153 µM | 199 µg/mL (≈ 475 µM) | CN(C(=O)c1ccc(OCC2CC2)cc1)[C@H]1CCc2cc(CN3CCCC3)ccc2C1 [Example 6-05]
2 | 0.133 µM | > 275 µg/mL | COCCCNCc1ccc2c(c1)CC[C@H](N(C)C(=O)c1ccc(OCC3CC3)cc1)C2 [Example 7-21]
3 | 0.145 µM | > 275 µg/mL | CC(C)CCNCc1ccc2c(c1)CC[C@H](N(C)C(=O)c1ccc(OCC3CC3)cn1)C2 [Example 7-32]
4 | 0.093 µM | 7 µg/mL (≈ 16.6 µM) | CC(C)(C)CNCc1ccc2c(c1)CC[C@H](NC(=O)c1ccc(OCC3CC3)cc1)C2 [Example 7-13]
5 | 0.141 µM | > 290 µg/mL | CCCCOc1ccc(C(=O)N(C)[C@H]2CCc3cc(CNCC4CCOCC4)ccc3C2)nc1 [Example 2-07]
6 | 0.136 µM | > 221 µg/mL | CN(C(=O)c1ccc(OCC2CC2)cc1)[C@H]1CCc2cc([C@H]3CCCN3)ccc2C1 [Example 4-01, 4-Cyclopropylmethoxy-N-methyl-N—((S)—(R)-6-pyrrolidin-2-yl-1,2,3,4-tetrahydronaphthalen-2-yl)benzamide]
7 | 0.215 µM | > 281 µg/mL | CN(C(=O)c1ccc(OCC2CC2)cc1)[C@H]1CCc2cc(CNC[C@@H]3CCCO3)ccc2C1 [Example 1-02]
8 | 0.22 µM | > 283 µg/mL | CCCOc1ccc(C(=O)N(C)[C@H]2CCc3cc(CNCC4CCOCC4)ccc3C2)nc1 [Example 2-08]
9 | 0.375 µM | > 275 µg/mL | CN(C(=O)c1ccc(OCC2CC2)cn1)[C@H]1CCc2cc(CNCC(C)(C)C)ccc2C1 [Example 7-34]
10 | 0.507 µM | 30 µg/mL (≈ 61.1 µM) | CCN(Cc1ccc2c(c1)CC[C@H](N(C)C(=O)c1ccc(OCC3CC3)cc1)C2)CC1CCOCC1 [Example 1-14]
11 | 0.261 µM | > 259 µg/mL | CN(C(=O)c1ccc(OCC2CC2)cc1)[C@H]1CCc2cc(CN3CCC3)ccc2C1 [Example 7-09]
12 | 0.898 µM | > 274 µg/mL | CN(C(=O)c1ccc(OCC2CC2)cc1)[C@H]1CCc2cc(CNCC(C)(C)C)ccc2C1 [Example 7-11]
13 | 0.075 µM | 28 µg/mL (≈ 62.7 µM) | O=C(N[C@H]1CCc2cc(CN3CCCCCC3)ccc2C1)c1ccc(COC2CCC2)cc1 [Example 6-06]
14 | 0.152 µM | > 288 µg/mL | CN(C(=O)c1ccc(OCC2CC2)cn1)[C@H]1CCc2cc(CN3CCC(C)(C)CC3)ccc2C1 [Example 7-28]
15 | 0.146 µM | 203 µg/mL (≈ 437 µM) | CCCCOc1ccc(C(=O)N(C)[C@H]2CCc3cc(CNCC4CCOCC4)ccc3C2)cc1 [Example 2-06]
16 | 0.13 µM | > 281 µg/mL | CN(C(=O)c1ccc(OCC2CC2)cc1)[C@H]1CCc2cc(CNC[C@H]3CCCO3)ccc2C1 [Example 1-03]
